pIC50: −log10 of the molar value.
System: 282377-053-R-J1-PDC complex spheroid viability
Assay: Anticancer human tumor 282377-053-R-J1-PDC patient-derived colon adenocarcinoma cell line growth inhibition [POLQ]
Conditions: for pIC50: curve of first compound; for viability, T/C: stronger effect = lower value
Procedure: Multicellular complex tumor spheroid response to Polymerase (POL) inhibitors (novobiocin, ART-558, RP6685) in combination with a variety of drugs and investigational agents in selected tumor cell lines
The POL inhibitors (novobiocin, ART-558, and RP6685) were evaluated both individually and in combination with standard of care and investigational anticancer small molecules within a complex spheroid model of solid tumors. . Complex spheroids include a stromal component modeled by human endothelial cells (HUVEC) and fibroblasts modeled by human mesenchymal stem cells (MSCs). The concentration ranges selected for each drug and investigational agent were based upon clinically achievable concentrations if the clinical Cmax of the agent was known.
Compounds. The drugs and investigational agents: novobiocin (NSC847541), ART-558 (NSC835418), RP-6685 (NSC848927), peposertib (NSC802822), ceralasertib (NSC780249), elimusertib (NSC800525), camonsertib (NSC841442), AZD-1390 (NSC803789), olaparib (NSC753686), talazoparib (NSC767125), rucaparib (NSC756644), sotorasib (NSC818433), MRTX-1133 (NSC836407), SN-38 (NSC673596), topotecan (NSC609699), epotoside (NSC141540), doxorubicin (NSC123127), gemcitabine (NSC613327), 5-fluorouracil (NSC19893), paclitaxel (NSC125973), vemurafenib (NSC761431), MSA-2 (NSC828583), SN-011 (NSC837082), adavosertib (NSC754352), prexasertib (NSC758257), carboplatin (NSC241240) and oxaliplatin (NSC266046), were obtained from the National Cancer Institute (NCI) Developmental Therapeutics Program Chemical Repository (21). The FDA-approved anticancer drug set is available from the Developmental Therapeutics Program at https://dtp.cancer.gov/organization/dscb/obtaining/. […] The stock solutions were prepared in dimethyl sulfoxide (DMSO, Sigma-Aldrich, St. Louis, MO, cat. D2650), except for the platinum compounds which were prepared in saline (Quality Biological, Gaithersburg, MD, cat. 114-055-101), at 800-fold the tested concentration and stored at -70 degrees C prior to their use. All drugs and investigational agents were tested over a range starting from a high concentration at or near the clinical Cmax and decreasing in half-log increments. If the clinical Cmax for an agent had not been determined, the highest concentration tested was 10 microM, except for SN-38, which was tested at a high concentration of 1 microM.
Cell Culture. All cells were maintained in an incubator at 37 degrees C and 5% CO2 with 95% humidity. The PDC lines were cultured according to standard operating procedures established by the NCI PDMR (https://pdmr.cancer.gov). Table 3 of the manuscript, lists the cell lines along with the number of the three cell types plated to form the mct-spheroids and media for tumor cell growth. After thawing, all PDC lines, except 997537-175-T-J1-PDC and 415267-285-R-J2-PDC, were cultured in Matrigel-coated flasks prepared with a working solution of 1X Ham's F-12 nutrient mix, without supplementation (Thermo Fisher Scientific, cat. 11765054), 100 U/mL penicillin-streptomycin (Thermo Fisher Scientific, cat. 15140122), and 2.5% Matrigel (Corning Inc., Corning, NY, cat. 354248) for the first three passages. The two PDC lines 997537-175-T-J1-PDC and 415267-285-R-J2-PDC were cultured on uncoated flasks. The 857933-349-R-J2-PDC line was cultured in 6C/Colon 1B media containing advanced DMEM/F-12 (Thermo Fisher Scientific, cat. 12634028), 10 mM HEPES (Thermo Fisher Scientific, cat. 15630080), 1X GlutaMAX supplement (Thermo Fisher Scientific, cat. 35050061), 0.1 mg/mL primocin (InvivoGen, San Diego, CA, cat. ant-pm-2), 10% defined fetal bovine serum, heat inactivated (HyClone Laboratories Inc., Logan, UT, cat. SH30070.03HI), 50% L-WRN conditioned media (ATCC, cat. CRL-3276), 1.25 mM N-Acetyl-L-cysteine (Sigma-Aldrich, cat. A9165), 10 mM nicotinamide (Sigma-Aldrich, cat. N0636), 1X B-27 supplement (Thermo Fisher Scientific, cat. 17504044), 1X N-2 supplement (Thermo Fisher Scientific, cat. […]

[1] = second compound 0.0316 µM, first compound 0.0316 µM
[2] = second compound 0.0316 µM, first compound 0.1 µM
[3] = second compound 0.0316 µM, first compound 0.316 µM
[4] = second compound 0.0316 µM, first compound 1 µM
[5] = second compound 0.0316 µM, first compound 3.16 µM
[6] = second compound 0.0316 µM, first compound 10 µM
[7] = second compound 0.1 µM, first compound 0.0316 µM
[8] = second compound 0.1 µM, first compound 0.1 µM
[9] = second compound 0.1 µM, first compound 0.316 µM
[10] = second compound 0.1 µM, first compound 1 µM
[11] = second compound 0.1 µM, first compound 3.16 µM
[12] = second compound 0.1 µM, first compound 10 µM
[13] = second compound 0.316 µM, first compound 0.0316 µM
[14] = second compound 0.316 µM, first compound 0.1 µM
[15] = second compound 0.316 µM, first compound 0.316 µM
[16] = second compound 0.316 µM, first compound 1 µM
[17] = second compound 0.316 µM, first compound 3.16 µM
[18] = second compound 0.316 µM, first compound 10 µM
[19] = second compound 1 µM, first compound 0.0316 µM
[20] = second compound 1 µM, first compound 0.1 µM
[21] = second compound 1 µM, first compound 0.316 µM
[22] = second compound 1 µM, first compound 1 µM
[23] = second compound 1 µM, first compound 3.16 µM
[24] = second compound 1 µM, first compound 10 µM
[25] = second compound 3.16 µM, first compound 0.0316 µM
[26] = second compound 3.16 µM, first compound 0.1 µM
[27] = second compound 3.16 µM, first compound 0.316 µM
[28] = second compound 3.16 µM, first compound 1 µM
[29] = second compound 3.16 µM, first compound 3.16 µM
[30] = second compound 3.16 µM, first compound 10 µM
[31] = second compound 10 µM, first compound 0.0316 µM
[32] = second compound 10 µM, first compound 0.1 µM
[33] = second compound 10 µM, first compound 0.316 µM
[34] = second compound 10 µM, first compound 1 µM
[35] = second compound 10 µM, first compound 3.16 µM
[36] = second compound 10 µM, first compound 10 µM
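Further: spheroids exposed to compounds for seven days.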
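Wherever viability, T/C is given: 100% = DMSO vehicle control viability.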

CCc1cc2c(N3CCc4c(cc(Cn5ccnc5)cc4-c4cn(C)nc4C(F)(F)F)C3=O)ccnc2c(OC)n1 + Nc1ccc(C#CCN(C(=O)Cc2ncc(C(F)(F)F)cc2C(F)(F)F)c2ccc(F)cc2)nn1
pIC50 (second compound 0.0316 µM): < 5.00 | pIC50 (second compound 0.1 µM): < 5.00 | pIC50 (second compound 0.316 µM): < 5.00 | pIC50 (second compound 1 µM): < 5.00 | pIC50 (second compound 3.16 µM): < 5.00 | pIC50 (second compound 10 µM): < 5.00 | viability, T/C [1]: 92.7% | viability, T/C [2]: 98.8% | viability, T/C [3]: 102% | viability, T/C [4]: 106% | viability, T/C [5]: 94.1% | viability, T/C [6]: 111% | viability, T/C [7]: 75.9% | viability, T/C [8]: 73.9% | viability, T/C [9]: 72.2% | viability, T/C [10]: 77.1% | viability, T/C [11]: 107% | viability, T/C [12]: 115% | viability, T/C [13]: 90.3% | viability, T/C [14]: 78.8% | viability, T/C [15]: 86.3% | viability, T/C [16]: 90.1% | viability, T/C [17]: 111% | viability, T/C [18]: 87.4% | viability, T/C [19]: 104% | viability, T/C [20]: 75.7% | viability, T/C [21]: 84.1% | viability, T/C [22]: 90.5% | viability, T/C [23]: 102% | viability, T/C [24]: 108% | viability, T/C [25]: 103% | viability, T/C [26]: 92.7% | viability, T/C [27]: 88.8% | viability, T/C [28]: 109% | viability, T/C [29]: 96.7% | viability, T/C [30]: 123% | viability, T/C [31]: 95.5% | viability, T/C [32]: 106% | viability, T/C [33]: 113% | viability, T/C [34]: 108% | viability, T/C [35]: 138% | viability, T/C [36]: 127%

COc1cc2cc(C(=O)CCC(=O)O)sc2cc1OC + Nc1ccc(C#CCN(C(=O)Cc2ncc(C(F)(F)F)cc2C(F)(F)F)c2ccc(F)cc2)nn1
pIC50 (second compound 0.0316 µM): < 5.00 | pIC50 (second compound 0.1 µM): < 5.00 | pIC50 (second compound 0.316 µM): < 5.00 | pIC50 (second compound 1 µM): < 5.00 | pIC50 (second compound 3.16 µM): < 5.00 | pIC50 (second compound 10 µM): < 5.00 | viability, T/C [1]: 92.5% | viability, T/C [2]: 94.8% | viability, T/C [3]: 115% | viability, T/C [4]: 102% | viability, T/C [5]: 92.2% | viability, T/C [6]: 95.2% | viability, T/C [7]: 112% | viability, T/C [8]: 105% | viability, T/C [9]: 81.5% | viability, T/C [10]: 102% | viability, T/C [11]: 94.5% | viability, T/C [12]: 125% | viability, T/C [13]: 103% | viability, T/C [14]: 95.3% | viability, T/C [15]: 89.9% | viability, T/C [16]: 87.3% | viability, T/C [17]: 102% | viability, T/C [18]: 79.9% | viability, T/C [19]: 103% | viability, T/C [20]: 84.5% | viability, T/C [21]: 94% | viability, T/C [22]: 104% | viability, T/C [23]: 107% | viability, T/C [24]: 97.3% | viability, T/C [25]: 109% | viability, T/C [26]: 112% | viability, T/C [27]: 103% | viability, T/C [28]: 112% | viability, T/C [29]: 100% | viability, T/C [30]: 90.1% | viability, T/C [31]: 126% | viability, T/C [32]: 116% | viability, T/C [33]: 123% | viability, T/C [34]: 107% | viability, T/C [35]: 117% | viability, T/C [36]: 104%

Source: PubChem BioAssay AID1963852 (Molecular Pharmacology Branch, DTP, NCI, 2024)
